Holding throughout (assay type): cell-based
For test [1], the target named is ZBTB7A (Zinc Finger And BTB Domain Containing 7A) (Homo sapiens (Human), UniProt O95365+Q96SW2). In words: HUDEP-2 ZBTB7A HiBiT degradation assay. The note with it: HUDEP-2 ZBTB7A HiBiT cells, 24 hours treatment, luminescence; for DC50: read-out: ZBTB7A EC50. As to the method: (§1) The HiBiT degradation assay for WIZ and ZBTB7A in HUDEP-2 cells was performed as described below. HUDEP-2 cells engineered to express a HiBiT tag in either the WIZ (Widely interspaced zinc finger) or ZBTB7A (Zinc Finger And BTB Domain Containing 7A) proteins were maintained in low attachment flasks in StemSpan SFEM II media supplemented with Penicillin-Streptomycin (50 U/mL), rhSCF (50 ng/mL), rhEPO (3 IU/mL), dexamethasone (0.4 μg/mL) and doxycycline (1 μg/mL). Prior to start of the assay, cell count and viability were measured by trypan blue exclusion using the Vi-cell XR cell viability analyzer. For the HUDEP-2 WIZ HiBiT assay, cells were transferred to a 50 mL conical and centrifuged at 500 g for five minutes. Cells were resuspended in fresh StemSpan SFEM II media supplemented with Penicillin-Streptomycin (50 U/mL), rhSCF (50 ng/mL), rhEPO (3 IU/mL), dexamethasone (0.4 μg/mL) and doxycycline (1 μg/mL) at a density of 1.0×10^6 cells/ml. Forty microliters of cell suspension was dispensed into 384-well Low Flange White Flat Bottom Polystyrene TC-treated Microplates containing pre-dispensed compounds, using a VIAFLO 384 liquid hander, and placed in a 37° C. incubator with 5% CO2. […] After 24 hours of treatment, 40 μL Nano-Glo HiBiT Lytic Detection System reagent was dispensed into each well using a VIAFLO 384 liquid hander. Plates were incubated for 25 minutes at room temperature and the luminescence was read as relative luminescent units using the EnVision plate reader. EC50 and Y-min values were calculated using curves calculated from dotmatics software after the normalization to the DMSO control of 10 different concentrations: 10, 3.33, 1.11, 0.37, 0.12, 0.04 0.0137, 0.0046, 0.0015 and 0.0005 μM respectively.
Sequence of ZBTB7A (Zinc Finger And BTB Domain Containing 7A) (O95365 whole entry, the tested form may be a part): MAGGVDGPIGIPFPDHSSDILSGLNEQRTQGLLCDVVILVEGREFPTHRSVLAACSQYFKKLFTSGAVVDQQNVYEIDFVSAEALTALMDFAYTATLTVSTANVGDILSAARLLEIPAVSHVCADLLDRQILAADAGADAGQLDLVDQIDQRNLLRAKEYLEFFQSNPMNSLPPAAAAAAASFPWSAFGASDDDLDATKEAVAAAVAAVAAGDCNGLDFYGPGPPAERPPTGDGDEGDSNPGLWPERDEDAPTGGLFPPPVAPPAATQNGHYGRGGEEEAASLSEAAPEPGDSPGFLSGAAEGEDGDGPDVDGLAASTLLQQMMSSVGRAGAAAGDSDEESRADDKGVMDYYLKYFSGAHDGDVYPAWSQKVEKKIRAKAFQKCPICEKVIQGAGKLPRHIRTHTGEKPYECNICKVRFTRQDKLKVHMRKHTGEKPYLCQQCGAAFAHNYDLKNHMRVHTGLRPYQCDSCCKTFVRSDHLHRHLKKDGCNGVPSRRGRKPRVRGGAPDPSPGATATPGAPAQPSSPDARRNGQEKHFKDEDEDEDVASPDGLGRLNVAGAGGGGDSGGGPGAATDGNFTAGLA
Sequence of ZBTB7A (Zinc Finger And BTB Domain Containing 7A) (Q96SW2 whole entry, the tested form may be a part): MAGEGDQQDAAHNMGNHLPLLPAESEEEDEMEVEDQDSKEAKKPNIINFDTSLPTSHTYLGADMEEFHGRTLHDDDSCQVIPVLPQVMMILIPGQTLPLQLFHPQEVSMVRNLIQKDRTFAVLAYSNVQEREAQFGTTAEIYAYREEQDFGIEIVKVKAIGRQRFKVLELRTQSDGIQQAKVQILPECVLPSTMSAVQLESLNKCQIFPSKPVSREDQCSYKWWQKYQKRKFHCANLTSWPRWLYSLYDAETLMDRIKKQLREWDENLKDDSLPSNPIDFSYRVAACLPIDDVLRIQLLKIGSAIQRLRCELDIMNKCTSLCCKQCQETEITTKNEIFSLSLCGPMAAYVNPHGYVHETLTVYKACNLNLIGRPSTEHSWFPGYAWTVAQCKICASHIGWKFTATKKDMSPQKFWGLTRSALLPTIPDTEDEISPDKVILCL
Sequence of ZBTB7A (Zinc Finger And BTB Domain Containing 7A) (Q16531 whole entry partner, the tested form may be a part): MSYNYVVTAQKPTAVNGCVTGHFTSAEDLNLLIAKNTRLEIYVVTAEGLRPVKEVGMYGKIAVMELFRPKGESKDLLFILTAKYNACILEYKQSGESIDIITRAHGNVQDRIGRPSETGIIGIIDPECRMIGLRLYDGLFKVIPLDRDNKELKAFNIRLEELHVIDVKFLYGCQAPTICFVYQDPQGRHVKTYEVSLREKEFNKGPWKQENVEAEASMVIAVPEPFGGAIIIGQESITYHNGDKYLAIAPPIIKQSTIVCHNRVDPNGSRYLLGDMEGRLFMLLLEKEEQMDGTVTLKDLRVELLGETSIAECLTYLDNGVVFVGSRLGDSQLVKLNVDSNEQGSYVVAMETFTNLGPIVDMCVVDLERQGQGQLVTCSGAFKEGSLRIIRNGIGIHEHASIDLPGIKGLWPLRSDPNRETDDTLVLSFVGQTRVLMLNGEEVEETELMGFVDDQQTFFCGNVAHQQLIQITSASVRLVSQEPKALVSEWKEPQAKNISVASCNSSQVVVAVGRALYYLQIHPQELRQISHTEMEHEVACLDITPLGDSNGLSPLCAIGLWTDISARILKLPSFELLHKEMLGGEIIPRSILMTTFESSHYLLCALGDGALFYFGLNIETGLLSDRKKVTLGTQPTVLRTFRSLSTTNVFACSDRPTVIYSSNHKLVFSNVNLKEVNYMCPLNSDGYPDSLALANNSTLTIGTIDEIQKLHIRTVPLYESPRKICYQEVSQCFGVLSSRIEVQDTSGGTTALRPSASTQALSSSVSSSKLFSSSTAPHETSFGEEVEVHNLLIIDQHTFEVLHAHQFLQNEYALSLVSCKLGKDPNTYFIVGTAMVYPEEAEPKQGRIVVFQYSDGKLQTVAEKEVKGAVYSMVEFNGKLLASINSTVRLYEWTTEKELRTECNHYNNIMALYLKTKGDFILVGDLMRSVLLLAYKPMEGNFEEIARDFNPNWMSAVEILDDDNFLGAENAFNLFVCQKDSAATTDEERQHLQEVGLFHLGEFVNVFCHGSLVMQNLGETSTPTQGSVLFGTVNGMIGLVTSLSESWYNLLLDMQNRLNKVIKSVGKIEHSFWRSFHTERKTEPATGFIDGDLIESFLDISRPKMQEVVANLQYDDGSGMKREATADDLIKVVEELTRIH
For the HUDEP-2 ZBTB7A HiBiT assay, cell count and viability were measured by trypan blue exclusion using the Vi-cell XR cell viability analyzer and the cells were transferred to a 50 mL conical and centrifuged at 500 g for five minutes. Cells were resuspended in fresh IMDM media supplemented with L-Glutamine (1×), Penicillin-Streptomycin (50 U/mL), holo-transferrin (330 μg/mL), heparin (2 IU/mL), r-human Insulin (10 μg/mL), rhEPO (3 IU/mL), rhSCF (100 ng/mL)+Dox (1 μg/mL) and 5% human plasma in low attachment flasks, which were placed in a 37° C. incubator with 5% CO2. After 48 hours, cell count and viability were measured by trypan blue exclusion using the Vi-cell XR cell viability analyzer. The HUDEP-2 ZBTB7A cells were transferred to a 50 mL conical, centrifuged at 500 g for five minutes and resuspended at a density of 1.0×10^6 cells/ml in IMDM media supplemented with L-Glutamine (1×), Penicillin-Streptomycin (50 U/mL), holo-transferrin (330 μg/mL), heparin (2 IU/mL), r-human Insulin (10 μg/mL), rhEPO (3 IU/mL), rhSCF (100 ng/mL)+Dox (1 μg/mL) and 5% human plasma. Forty microliters of cell suspension was dispensed into 384-well Low Flange White Flat Bottom Polystyrene TC-treated Microplates containing pre-dispensed compounds, using a VIAFLO 384 liquid hander, and placed in a 37° C. incubator with 5% CO2. […] After 24 hours of treatment, 40 μL Nano-Glo HiBiT Lytic Detection System reagent was dispensed into each well using a VIAFLO 384 liquid hander. Plates were incubated for 25 minutes at room temperature and the luminescence was read as relative luminescent units using the EnVision plate reader. EC50 and Y-min values were calculated using curves calculated from dotmatics software after the normalization to the DMSO control of 10 different concentrations: 10, 3.33, 1.11, 0.37, 0.12, 0.04 0.0137, 0.0046, 0.0015 and 0.0005 μM respectively.

Test [2] addresses WIZ (Widely interspaced zinc finger) (Homo sapiens (Human), UniProt O95785+Q96SW2). As to the kind of experiment: HUDEP-2 WIZ HiBiT degradation assay. The note with it: HUDEP-2 WIZ HiBiT cells, 24 hours treatment, luminescence; for DC50: read-out: WIZ EC50. The method, then: as §1
Test [3] deals with fetal hemoglobin (HbF) in GCSF-mobilized human CD34+ cells. As to the kind of experiment: HbF Induction Assay. Particulars: 168 h; compound 1 μM, 7 days, erythroid-differentiated human CD34+ cells, flow cytometry; DMSO baseline 15% HbF positive cells. The method, then: The expansion, differentiation, and maturation of GCSF-mobilized human CD34^+ (STEMCELL Technologies Inc.) cells towards erythroid lineage cells were performed using a two-phase liquid culture model (Moutouh-de Parseval L A, el al. Pomalidomide and lenalidomide regulate erythropoiesis and fetal hemoglobin production in human CD34+ cells. J Clin Invest. 2008 January; 118(1):248-58). In the first phase, GCSF-mobilized human CD34^+ cells were cultured using StemSpan™-XF (STEMCELL Technologies Inc.) media supplemented with 1×BIT 9500, Penicillin-Streptomycin (50 U/mL), 100 ng/mL recombinant human (rh) SCF, 100 ng/mL rh Flt3-L, 20 ng/mL rh IL-3 and 10 ng/mL rh EPO and the growth of cells maintained in exponential phase for 7 days at 37° C. with 5% CO2 to support expansion and progenitor differentiation prior the second phase and treatment with compounds. In the second phase, culture media was changed to StemSpan™-XF media supplemented with 1×BIT 9500, Penicillin-Streptomycin (50 U/mL), 50 ng/mL rh SCF and 40 ng/mL rh EPO to promote further differentiation and maturation of the erythrocytes and to initiate treatment with compounds. Compounds were dispensed in duplicate at a final concentration of 1 μM in a final DMSO amount of 0.1%. Fresh compound was reapplied, and cell density was kept constant every 2 days. After 7 days, the cells were assessed for viability and fetal hemoglobin expression using flow cytometry. For viability analysis, eBioscience™ Fixable Viability Dye eFluor™ 780 (1:1000, eBioscience; Cat #65-0865-14) was added to the cells and kept in the dark for 10 minutes. For analysis of fetal hemoglobin (HbF), cells were fixed and permeabilized using Fixation Buffer (BioLegend; Cat #420801 and Intracellular staining permeabilization buffer (BioLegend, Cat #420201) following manufacturer's instructions. During permeabilization step, cells were stained with PE-labelled Mouse Anti-Human Fetal Hemoglobin (1:10, clone 2D12; BD Biosciences, Cat #BDB560041) incubated at room temperature for 20 minutes and protected from light. PE-labelled Mouse anti-IgG k, (1:10 clone MOPC-21; BD Biosciences, Cat# BDB551436) was used as an isotype control.
Viability, cell count, and fetal hemoglobin (HbF) levels were measured using an Attune NXT flow cytometer (Thermofisher) and the data analyzed using the FCS express software (De Novo Software). In Table 1 below, the effects of compounds of formula (I), formula (I′), formula (II), formula (II′), and formula (III) on % viable cells, viable cell count, on the % HbF positive cells and the median fluorescent intensity (MFI) of the HbF positive cell population compared to the DMSO controls can be viewed. All gates were set using the isotype negative control. The baseline % HbF positive cells for DMSO-treated control cells was 15%. Compounds of formula (I), formula (I′), formula (II), formula (II′), and formula (III) having HbF induction between 66% and 100% are level A. Compounds of formula (I), formula (I′), formula (II), formula (II′), and formula (III) having HbF induction between 33% and 66% are level B. Compounds of formula (I), formula (I′), formula (II), formula (II′), and formula (III) having HbF induction % less than 33% are level C. For certain compounds of formula (I), formula (I′), formula (II), formula (II′), and formula (III) % HbF induction values 0-33% (activity level C), between 33% and 66% (activity level B), and between 67% and 100% (activity level A) are shown in Table 2 below.

Sequence of WIZ (Widely interspaced zinc finger) (O95785 whole entry): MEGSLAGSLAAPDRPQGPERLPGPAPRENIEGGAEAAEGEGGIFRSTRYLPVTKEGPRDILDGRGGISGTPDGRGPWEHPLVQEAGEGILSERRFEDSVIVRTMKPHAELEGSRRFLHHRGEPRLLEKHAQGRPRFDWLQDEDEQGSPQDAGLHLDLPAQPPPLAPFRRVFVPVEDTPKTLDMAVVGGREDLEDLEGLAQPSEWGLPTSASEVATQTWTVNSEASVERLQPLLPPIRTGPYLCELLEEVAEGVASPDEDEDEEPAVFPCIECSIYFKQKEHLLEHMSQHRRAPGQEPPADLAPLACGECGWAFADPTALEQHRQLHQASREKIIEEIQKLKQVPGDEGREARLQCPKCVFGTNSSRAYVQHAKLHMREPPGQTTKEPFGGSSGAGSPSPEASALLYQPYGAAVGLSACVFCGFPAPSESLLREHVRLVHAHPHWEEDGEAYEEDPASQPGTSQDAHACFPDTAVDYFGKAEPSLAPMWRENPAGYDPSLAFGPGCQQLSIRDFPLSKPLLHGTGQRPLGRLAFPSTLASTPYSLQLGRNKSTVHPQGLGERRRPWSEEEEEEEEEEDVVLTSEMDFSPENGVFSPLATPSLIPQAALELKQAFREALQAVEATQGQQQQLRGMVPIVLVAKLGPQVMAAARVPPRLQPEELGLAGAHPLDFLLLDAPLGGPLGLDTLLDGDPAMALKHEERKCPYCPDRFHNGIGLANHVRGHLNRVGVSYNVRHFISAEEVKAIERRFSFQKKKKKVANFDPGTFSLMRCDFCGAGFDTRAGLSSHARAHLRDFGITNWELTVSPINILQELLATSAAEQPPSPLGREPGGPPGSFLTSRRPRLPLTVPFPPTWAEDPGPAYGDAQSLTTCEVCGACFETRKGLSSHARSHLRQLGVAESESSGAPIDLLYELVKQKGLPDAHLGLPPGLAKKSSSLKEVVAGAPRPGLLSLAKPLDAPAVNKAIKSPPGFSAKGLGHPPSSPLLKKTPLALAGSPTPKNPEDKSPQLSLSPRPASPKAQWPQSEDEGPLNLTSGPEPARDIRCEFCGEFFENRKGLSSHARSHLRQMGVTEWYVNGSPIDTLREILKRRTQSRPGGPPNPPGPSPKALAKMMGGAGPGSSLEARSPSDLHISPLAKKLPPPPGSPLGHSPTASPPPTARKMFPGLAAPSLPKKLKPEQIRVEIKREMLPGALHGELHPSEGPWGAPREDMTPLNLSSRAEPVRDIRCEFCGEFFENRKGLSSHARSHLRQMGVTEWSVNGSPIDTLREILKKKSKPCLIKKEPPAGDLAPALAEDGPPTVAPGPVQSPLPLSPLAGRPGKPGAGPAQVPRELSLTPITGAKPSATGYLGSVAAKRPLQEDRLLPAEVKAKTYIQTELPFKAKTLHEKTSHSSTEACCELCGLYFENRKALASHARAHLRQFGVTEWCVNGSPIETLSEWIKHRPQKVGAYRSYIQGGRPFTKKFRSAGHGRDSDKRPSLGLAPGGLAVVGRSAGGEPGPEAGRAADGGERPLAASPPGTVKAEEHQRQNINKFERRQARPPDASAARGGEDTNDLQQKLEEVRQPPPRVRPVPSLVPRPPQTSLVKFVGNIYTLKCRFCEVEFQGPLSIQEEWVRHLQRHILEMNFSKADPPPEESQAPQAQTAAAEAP
Sequence of WIZ (Widely interspaced zinc finger) (Q96SW2 whole entry): as the sequence (Q96SW2 whole entry, the tested form may be a part) above
Sequence of WIZ (Widely interspaced zinc finger) (Q16531 whole entry partner): as the sequence (Q16531 whole entry partner, the tested form may be a part) above

Take `Cc1cc(-c2cc3c(cnn3C3CCOCC3)cc2Nc2cccc3c2C(=O)N(C2CCC(=O)NC2=O)C3=O)ccn1` (stereo not drawn) [Compound 4, 2-(2,6-dioxopiperidin-3-yl)-4-((6-(2-methylpyridin-4-yl)-1-(tetrahydro-2H-pyran-4-yl)-1H-indazol-5-yl)amino)isoindoline-1,3-dione]: the DC50 fell in the range of 30 to 100 nM in test [1] and 10 to 100 nM in test [2]. In test [3], this molecule had an activation at 1 µM of 66 to 100%.

`Cc1cc(-c2cc3ncn(C4CC4)c3cc2Nc2cccc3c2C(=O)N(C2CCC(=O)NC2=O)C3=O)ccn1` (stereo not drawn) [Compound 2, 4-((1-cyclopropyl-5-(2-methylpyridin-4-yl)-1H-benzo[d]imidazol-6-yl)amino)-2-(2,6-dioxopiperidin-3-yl)isoindoline-1,3-dione]: the figures for the DC50 in test [1] and in test [2] were below 30 nM and below 10 nM, respectively. The molecule also had an activation at 1 µM in test [3] of 66 to 100%.

On to `Cc1cc(Oc2ccccc2)c(Nc2cccc3c2C(=O)N(C2CCC(=O)NC2=O)C3=O)cn1` (stereo not drawn) [Compound 21, 2-(2,6-dioxopiperidin-3-yl)-4-((6-methyl-4-phenoxypyridin-3-yl)amino)isoindoline-1,3-dione], for which the DC50 in test [1] lay in the range of 30 to 100 nM. In test [2], this molecule came in with an EC50 below 10 nM. For the same molecule, the activation at 1 µM in test [3] is 33 to 66%.

`Cc1cc(-c2cc3c(cc2Nc2cccc4c2C(=O)N(C2CCC(=O)NC2=O)C4=O)nc(C)n3C)ccn1` (stereo not drawn) [Compound 23, 4-((1,2-dimethyl-6-(2-methylpyridin-4-yl)-1H-benzo[d]imidazol-5-yl)amino)-2-(2,6-dioxopiperidin-3-yl)isoindoline-1,3-dione]: the EC50 in test [1] was above 100 nM. In test [2], the DC50 was above 100 nM. In test [3], this molecule registered an activation at 1 µM of 33 to 66%.

With `Cc1c(Nc2cccc3c2C(=O)N(C2CCC(=O)NC2=O)C3=O)ccc2c1cnn2C1CCOCC1` (stereo not drawn) [Compound 20, 2-(2,6-dioxopiperidin-3-yl)-4-((4-methyl-1-(tetrahydro-2H-pyran-4-yl)-1H-indazol-5-yl)amino)isoindoline-1,3-dione], the EC50 was above 100 nM in test [1] and below 10 nM in test [2]. In test [3], this molecule returned an activation at 1 µM of 33 to 66%.

With `Cc1cc(-c2cc3c(cc2Nc2cccc4c2C(=O)N([C@H]2CCC(=O)NC2=O)C4=O)N(C)C(=O)CC3)ccn1` [Compound 32, (S)-2-(2,6-dioxopiperidin-3-yl)-4-((1-methyl-6-(2-methylpyridin-4-yl)-2-oxo-1,2,3,4-tetrahydroquinolin-7-yl)amino)isoindoline-1,3-dione], the DC50 in test [1] was in the range of 30 to 100 nM. For the same molecule, the EC50 in test [2] is below 10 nM. In test [3], the activation at 1 µM was in the range of 66 to 100%.

For the molecule `COc1cc(OCCN2CCCCC2)ccc1Nc1cccc2c1C(=O)N(C1CCC(=O)NC1=O)C2=O` (stereo not drawn) [Compound 12, 2-(2,6-dioxopiperidin-3-yl)-4-((2-methoxy-4-(2-(piperidin-1-yl)ethoxy)phenyl)amino)isoindoline-1,3-dione], the DC50 in test [1] was 30 to 100 nM. For the same molecule, the EC50 in test [2] was below 10 nM. Moreover, the activation at 1 µM in test [3] lay within 66 to 100%.

Take `Cc1cc(-c2cc3c(cnn3C)cc2Nc2cccc3c2C(=O)N(C2CCC(=O)NC2=O)C3=O)ccn1` (stereo not drawn) [Compound 19, 2-(2,6-dioxopiperidin-3-yl)-4-((1-methyl-6-(2-methylpyridin-4-yl)-1H-indazol-5-yl)amino)isoindoline-1,3-dione]: the EC50 in test [1] is above 100 nM. In addition, in test [2], the DC50 was above 100 nM. This molecule had an activation at 1 µM in test [3] of 66 to 100%.

On to `Cc1cc(-c2cc3cnn(C)c3cc2Nc2cccc3c2C(=O)N(C2CCC(=O)NC2=O)C3=O)ccn1` (stereo not drawn) [Compound 7, 2-(2,6-dioxopiperidin-3-yl)-4-((1-methyl-5-(2-methylpyridin-4-yl)-1H-indazol-6-yl)amino)isoindoline-1,3-dione], for which the DC50 in test [1] was 30 to 100 nM; in test [2] it was 10 to 100 nM. Besides, in test [3], the activation at 1 µM fell in the range of 66 to 100%.

With `Cc1nccc(-c2cc3c(cc2Nc2cccc4c2C(=O)N(C2CCC(=O)NC2=O)C4=O)N(C)C(=O)CC3)c1Cl` (stereo not drawn) [Compound 47, 4-((6-(3-chloro-2-methylpyridin-4-yl)-1-methyl-2-oxo-1,2,3,4-tetrahydroquinolin-7-yl)amino)-2-(2,6-dioxopiperidin-3-yl)isoindoline-1,3-dione], the EC50 in test [1] was below 30 nM; in test [2], below 10 nM. Besides, in test [3], the activation at 1 µM lay within 66 to 100%.

The record behind these values is patent US20240208937A1, “Compounds and Their Use for Treatment of Hemoglobinopathies” (Bristol-Myers Squibb Company, priority 2022, published 2024).
